Measurements: the NIST ThermoML archive (doi:10.1016/j.jct.2005.03.007)
Numbers after ± are expanded uncertainties.

Assay: Solid-liquid equilibrium temperature
Conditions: Crystal

c1ccccc1 [benzene]
Solid-liquid equilibrium temperature (53620 kPa, pressure-volume curve discontinuity): 293.15 ± 0.65 K | Solid-liquid equilibrium temperature (92220 kPa, pressure-volume curve discontinuity): 303.15 ± 0.99 K | Solid-liquid equilibrium temperature (133290 kPa, pressure-volume curve discontinuity): 313.15 ± 1.3 K | Solid-liquid equilibrium temperature (176820 kPa, pressure-volume curve discontinuity): 323.15 ± 1.6 K | Solid-liquid equilibrium temperature (222810 kPa, pressure-volume curve discontinuity): 333.15 ± 1.9 K | Solid-liquid equilibrium temperature (271270 kPa, pressure-volume curve discontinuity): 343.15 ± 2.2 K | Solid-liquid equilibrium temperature (322200 kPa, pressure-volume curve discontinuity): 353.15 ± 2.6 K

CCCCCCCCCCCCCCCC [hexadecane]
Solid-liquid equilibrium temperature (9210 kPa, pressure-volume curve discontinuity): 293.15 ± 0.3 K | Solid-liquid equilibrium temperature (50650 kPa, pressure-volume curve discontinuity): 303.15 ± 0.58 K | Solid-liquid equilibrium temperature (95560 kPa, pressure-volume curve discontinuity): 313.15 ± 0.9 K | Solid-liquid equilibrium temperature (143920 kPa, pressure-volume curve discontinuity): 323.15 ± 1.2 K | Solid-liquid equilibrium temperature (195740 kPa, pressure-volume curve discontinuity): 333.15 ± 1.5 K | Solid-liquid equilibrium temperature (251030 kPa, pressure-volume curve discontinuity): 343.15 ± 1.9 K

CCCCCCCCCCCCCCCCCC [octadecane]
Solid-liquid equilibrium temperature (8860 kPa, pressure-volume curve discontinuities): 303.15 ± 0.3 K | Solid-liquid equilibrium temperature (49600 kPa, pressure-volume curve discontinuities): 313.15 ± 0.57 K | Solid-liquid equilibrium temperature (94900 kPa, pressure-volume curve discontinuities): 323.15 ± 0.88 K | Solid-liquid equilibrium temperature (144780 kPa, pressure-volume curve discontinuities): 333.15 ± 1.2 K | Solid-liquid equilibrium temperature (199220 kPa, pressure-volume curve discontinuities): 343.15 ± 1.5 K | Solid-liquid equilibrium temperature (258230 kPa, pressure-volume curve discontinuities): 353.15 ± 1.8 K
